These results are taken from US5021423A, “Mitomycin derivatives and intermediates therefor” (Kyowa Hakko Kogyo Kabushiki Kaisha, priority 1988, dated 1991).

In brackets after ≈: the same amount, converted by molar mass.

For orientation: IC50 means the concentration needed to halve the response being measured. In general, ED50 refers to the midpoint of the dose-response relation. For orientation: LD50 means the dose expected to kill half of the subjects tested. Lower therefore signals a more toxic substance.

The subject of one series is HeLa S3 cells. Put plainly: Inhibition test against the growth of HeLa S3 cells. As to conditions: Homo sapiens, 72 hours, neutral red, read-out: IC50 (growth inhibition by 50%). Type of series: cell-based. Here is the method:
Inhibition test against the growth of HeLa S3 cells
Each 0.1 ml of MEM medium containing 10% foetal calf serum and 2 mM glutamine, which contained 3×10^4 HeLa S3 cells per ml, was put into each well of a 96 well microtitre plate. Without any pre-treatment, the cells were cultured overnight at a temperature of 37° C. in a CO2 incubator.
On each occasion, 0.05 ml of a test sample which had been suitably diluted was added to the well. After treating with the test compound for 72 hours, the supernatant was removed. After washing once with a PBS (-), a fresh medium (0.1 ml) was added to each well, followed by incubating at a temperature of 37° C. for 2 hours in the incubator.
After removal of the supernatant, 0.1 ml of a medium containing neutral red (0.02%) was added to each well. The cells were dyed by incubating at a temperature of 37° C. for one hour in the incubator. After removal of the supernatant, followed by washing once with a physiological solution of sodium chloride, the dyestuff was removed from each sample by extraction using a mixture of 0.001N hydrochloric acid and 30% ethanol. A microplate reader was used to measure the absorption at 550 nm. By comparing the absorption of untreated cells with the absorption of the cells treated with the test compound having a pre-determined concentration, a concentration of the test compound capable of inhibiting the growth of the cells by 50% was calculated and designated as IC50.

In a further series the test system is Sarcoma 180 solid tumour. Put plainly: Effect against Sarcoma 180 solid tumour. Type of series: in vivo, mice of ddy strain. As to conditions: Mus musculus, Sarcoma-180, iv, 168 h; male ddy mice, tail vein injection 24 hours after implantation; tumour volume 7 days after implantation; read-out: ED50 (dose reducing the volume of Sarcoma 180 solid tumours by 50%). The protocol:
(1) Effect aginast Sarcoma 180 solid tumour:
5×10^6 cells of Sarcoma 180 solid tumour cells were abdominally implanted into male mice of ddy strain. 7 days after this, ascites cells were sampled. The ascites cells were washed once with a sterilized physiological solution of sodium chloride and were used to prepare a cell suspension containing 5×10^7 cells per ml. 0.1 ml of the cell suspension was subcutaneously implanted into the right armpit of a male mouse (ddy strain; body weight 20±2 g). 24 hours after the implantation of the tumour cells, the test compound dissolved in a physiological solution of sodium chloride containing Tween 80, was injected into the tail vein of each mouse of a group consisting of 5 animals at a dose of 0.1-0.2 ml. The anti-tumour activity of the test sample was determined as follows:
7 days after the implantation, the major axis (a) and the minor axis (b) of the tumour were measured to calculate a value of "a×b^2 /2" which corresponds to the volume of the tumour. The anti-tumour activity was expressed by T/C viz. the ratio of the volume of the tumours (T) of the group of animals administered with the test compound to the corresponding volume of tumours (C) of the untreated animals.
(2) Determination of ED50 :
The term ED50 denotes the administered amount needed for reducing the volume of Sarcoma 180 solid tumours in the animals by 50% on the basis of the corresponding volume of Sarcoma 180 solid tumours in the untreated animals. On graph paper, the value T/C was indicated by an arithmetic scale on the longitudinal axis and the administered amount of test compound was indicated by a logarithmic scale on the lateral axis. A straight line indicating the relationship between the dose and T/C was determined by the least squares method from which a dose corresponding to T/C of 0.5 was obtained.

A short description of another series: Acute toxicity. Conditions: mouse, in vivo; ddy mice, single intravenous administration, observed for 14 days, Behrens Korber's method. The protocol:
Each animal of the test group consisting of 5 ddy mice was once administered intravenously with a test compound. […] The LD50 was determined by the Behrens Korber's method.

In series [1] the test system is Streptococcus faecium: Enterococcus faecium ATTC 10541. Put plainly: Anti-bacterial activity, agar dilution method at pH 7.0 (SF). Type of series: cell-based. As to conditions: pH 7, read-out: minimum growth inhibitory concentration, SF. An excerpt:
(§1) In this table, the microorganisms are abbreviated as follows:
SF: Streptococcus faecium: Enterococcus faecium
Background: In agar dilution the substance is mixed into plates at graded concentrations.

The subject of series [2] is Staphylococcus aureus ATCC 6538P. Put plainly: Anti-bacterial activity, agar dilution method at pH 7.0 (SA). Type of series: cell-based. As to conditions: ATCC6538P, read-out: minimum growth inhibitory concentration, SA.
Description: as §1
SA: Staphylococcus aureus ATCC 6538P

Series [3] deals with Proteus vulgaris ATCC 6897. As to the kind of experiment: Anti-bacterial activity, agar dilution method at pH 7.0 (PV). Type of series: cell-based. As to conditions: ATCC6897, read-out: minimum growth inhibitory concentration, PV.
Description: as §1
PV: Proteus vulgaris ATCC 6897

Series [4] has as its system Klebsiella pneumoniae ATCC 10031. Put plainly: Anti-bacterial activity, agar dilution method at pH 7.0 (KP). It counts as cell-based. Conditions: ATCC10031, read-out: minimum growth inhibitory concentration, KP.
Description: as §1
KP: Klebsiella pneumoniae ATCC 10031

Take `CCCCCCCC(=O)OC1=C(C)C2(OCCO2)C(=O)C2=C1N1C[C@@H]3N[C@@H]3[C@]1(OC)[C@@H]2COC(N)=O` [Compound 11]: the IC50 in the series on HeLa S3 cells is 0.01 µg/mL (≈ 0.0198 µM). Besides, the 50% effective dose (ED50) with Sarcoma 180 solid tumour was 0.77 mg/kg. Besides, the median lethal dose (LD50) at 336 h in “Acute toxicity” was 3.1 mg/kg.
On to `COC1=C(C)C2(OCCO2)C(=O)C2=C1N1C[C@@H]3N[C@@H]3[C@]1(OC)[C@@H]2COC(N)=O` [Compound 7], for which the MIC in series [1] came to 10 µg/mL (≈ 25.4 µM); in series [2], 5 µg/mL (≈ 12.7 µM); in series [3], 10 µg/mL (≈ 25.4 µM); in series [4], 2.5 µg/mL (≈ 6.35 µM). Besides, in the series on HeLa S3 cells, the 50% inhibitory concentration (IC50) was 0.085 µg/mL (≈ 0.216 µM).
For the compound `CCCCCCCCCCCC(=O)OC1=C(C)C2(OCCO2)C(=O)C2=C1N1C[C@@H]3N[C@@H]3[C@]1(OC)[C@@H]2COC(N)=O` [Compound 6], the MIC in series [1] is 2.5 µg/mL (≈ 4.45 µM); in series [2], 0.63 µg/mL (≈ 1.12 µM); in series [3], 2.5 µg/mL (≈ 4.45 µM); in series [4] it was 5 µg/mL (≈ 8.9 µM). Also, in the series on HeLa S3 cells, the IC50 was 0.0019 µg/mL (≈ 0.00338 µM). The ED50 in the series with Sarcoma 180 solid tumour came out at 1.2 mg/kg. Also, in the series “Acute toxicity”, the LD50 at 336 h is 3 mg/kg.
Regarding `CO[C@@]12[C@H](COC(N)=O)C3=C(C(OC(C)=O)=C(C)C4(OCCO4)C3=O)N1C[C@@H]1N[C@@H]12` [Compound 2], the MIC in series [1] was determined as 1.3 µg/mL (≈ 3.08 µM); in series [2], 0.63 µg/mL (≈ 1.49 µM); in series [3], 1.3 µg/mL (≈ 3.08 µM); in series [4] it was 0.16 µg/mL (≈ 0.38 µM). Besides, the IC50 in the series with HeLa S3 cells was found to be 0.007 µg/mL (≈ 0.0166 µM).
With `CC(=O)OC1=C(C)C2(OCCO2)C(=O)C2=C1N1C[C@H]3[C@H](N3C)[C@]1(O)[C@H]2COC(N)=O` (some centres unmarked) [Compound 3], the MIC in series [1] amounted to 50 µg/mL (≈ 119 µM); in series [2] it was 13 µg/mL (≈ 30.8 µM); in series [3] it was 13 µg/mL (≈ 30.8 µM); in series [4], 6.3 µg/mL (≈ 14.9 µM). For the same compound, in the series with Sarcoma 180 solid tumour, the median effective dose (ED50) was 9.9 mg/kg. In addition, the median lethal dose (LD50) at 336 h in “Acute toxicity” came out at 11.3 mg/kg.
With `CCCCC/C=C\C/C=C\CCCCCCCC(=O)OC1=C(C)C2(OCCO2)C(=O)C2=C1N1C[C@@H]3N[C@@H]3[C@]1(OC)[C@@H]2COC(N)=O` [Compound 10], in the series on HeLa S3 cells, the concentration for half-maximal inhibition (IC50) came to 0.0026 µg/mL (≈ 0.00405 µM). The ED50 with Sarcoma 180 solid tumour amounted to 1.9 mg/kg. For the same compound, the median lethal dose (LD50) at 336 h in the series “Acute toxicity” stood at 4.2 mg/kg.
As for `CO[C@@]12[C@H](COC(N)=O)C3=C(C(OC(=O)c4ccccc4)=C(C)C4(OCCO4)C3=O)N1C[C@@H]1N[C@@H]12` [Compound 5], the MIC in series [1] came to 1.3 µg/mL (≈ 2.69 µM); in series [2], 0.31 µg/mL (≈ 0.641 µM); in series [3], 0.63 µg/mL (≈ 1.3 µM); in series [4], 1.3 µg/mL (≈ 2.69 µM). Also, the IC50 with HeLa S3 cells stood at 0.013 µg/mL (≈ 0.0269 µM).
For `CO[C@@]12[C@H](COC(N)=O)C3=C(C(OC(=O)C(C)(C)C)=C(C)C4(OCCO4)C3=O)N1C[C@@H]1N[C@@H]12` [Compound 12], in the series with HeLa S3 cells, the IC50 was 0.53 µg/mL (≈ 1.14 µM).
